In paper PMC6848146, “Binding and structural analyses of potent inhibitors of the human Ca^2+/calmodulin dependent protein kinase kinase 2 (CAMKK2) identified from a collection of commercially-available kinase inhibitors” (Scientific Reports, 2019):
Marks after values point to notes of the source that are not given here.

Experiments:
[1] = target: T1, CAMKK2-KD (kinase domain of CAMKK2) (Homo sapiens, UniProt Q96RR4); assay: DSF thermal-shift screen, 384-well format; type: binding; details: 10 µM compound, 1 µM kinase, 0.1% DMSO, single measurement
T1 construct: the protein kinase domain (amino acids 161–449); hexahistidine (6xHis), TEV-cleavable; made in house
Experimental: (§1) We employed a thermal-shift assay (Differential Scanning Fluorimetry, DSF)[19] to identify compounds that can bind to the kinase domain of CAMKK2 (CAMKK2-KD). Protein thermal denaturation curves (Fig. 1A,B) were used to calculate the denaturation midpoint temperature (Tm) for the kinase domain of CAMKK2 in the presence of ligands or vehicle only (DMSO). […] DSF screens were performed on purified CAMKK2-KD using a library of commercially available, chemically diverse, ATP-competitive, kinase inhibitors.
DSF experiments in 384-well format followed a protocol previously established at the SGC-UNICAMP and described elsewhere.
The compounds, previously solubilized in DMSO, were used at 10 µM final concentration and 0.1% DMSO. Plates were sealed using optically clear films and transferred to a QuantStudio 6 qPCR instrument (Applied Biosystems). […] Protein in 0.1% DMSO was used as a reference.
(§2) For both formats, experiments were performed in singlets.

[2] = target: T1, CAMKK2-KD (kinase domain of CAMKK2); assay: DSF thermal-shift screen, 96-well format; type: binding; details: 96-well format, 12 µM compound, 2 µM kinase, 2.5% DMSO, single measurement; for ΔTm at 12 µM: read-out: ΔTm
Experimental: as §1
SYPRO Orange dye (Invitrogen) was used in 5X as final concentration.
Plates were sealed using optically clear films and transferred to an Mx3005p RT-PCR machine (Agilent).
as §2

[3] = target: T2, CAMKK2-FL (Homo sapiens, UniProt Q96RR4); assay: Radiometric enzymatic assay (Eurofins Discovery), Ca2+/Calmodulin present; type: biochemical; details: 90 µM ATP; single measurement
T2 construct: an enzymatic assay using the full-length protein (CAMKK2-FL); purchased Eurofins Discovery (MO, USA), assay service

[4] = target: T3, CAMKK1-FL (Homo sapiens, UniProt Q8N5S9); assay: as above; type: biochemical; details: 200 µM ATP; single measurement
T3 construct: purchased Eurofins Discovery (MO, USA), assay service
Experimental: All compounds employed in this study were initially developed to target other human protein kinases, and some are known to be quite promiscuous[18],[21].
Reaction conditions for assays using CAMKK1-FL were: 8 mM MOPS pH 7.0, 0.2 mM EDTA, 0.33 mg/mL MBP (myelin basic protein), 0.5 mM calcium chloride, 0.016 mg/ml calmodulin, 10 mM magnesium acetate and [gamma-^33P-ATP] (200 µM). […] The reactions were initiated by the addition of a Mg^2+-ATP mixture. After incubation for 40 minutes at room temperature, the reaction was stopped by the addition of phosphoric acid to a final concentration of 0.5%. […] Following subtraction of the average inhibitor control well counts, results were expressed as a percentage of the mean kinase activity in the positive control sample.

T1 sequence (Q96RR4 161-449): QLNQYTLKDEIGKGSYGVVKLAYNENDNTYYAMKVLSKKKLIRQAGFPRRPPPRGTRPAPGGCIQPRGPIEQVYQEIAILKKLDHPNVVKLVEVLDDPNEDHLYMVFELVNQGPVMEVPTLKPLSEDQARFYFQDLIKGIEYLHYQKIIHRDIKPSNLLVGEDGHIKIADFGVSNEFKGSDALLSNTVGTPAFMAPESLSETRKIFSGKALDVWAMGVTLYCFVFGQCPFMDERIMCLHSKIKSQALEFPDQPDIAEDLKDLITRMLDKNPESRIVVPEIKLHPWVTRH

CCOC(=O)c1cnc2ccc(-c3cncc(NS(=O)(=O)c4ccccc4)c3)cn12 [HS-173]
ΔTm [1]: 4.2 °C

CCS(=O)(=O)Nc1ccc2c(c1)/C(=C(/Nc1ccc(CN3CCCCC3)cc1)c1ccccc1)C(=O)N2 [Hesperadin]
ΔTm at 10 µM [1]: 7.3 °C

O=C(c1ccc(Nc2nccc(-c3cc4ccccc4s3)n2)cc1)N1CCC(N2CCCC2)CC1 [IKK 16]
ΔTm [2]: 6.8 °C

O=C1Nc2ccccc2/C1=C1/Nc2ccccc2/C1=N\O [Indirubin-3monoxime]
ΔTm [2]: 5.4 °C

O=C1c2ccccc2-c2n[nH]c3cccc1c23 [JNK Inhibitor II]
ΔTm [2]: 6.8 °C

COC(=O)[C@@]1(O)C[C@H]2O[C@]1(C)n1c3ccccc3c3c4c(c5c6ccccc6n2c5c31)C(=O)NC4 [K252a]
IC50 [3]: 50 nM | IC50 [4]: 51 nM | ΔTm [2]: 18.3^e °C

Cc1cc(Nc2ncc(Cl)c(Nc3ccccc3S(=O)(=O)C(C)C)n2)c(OC(C)C)cc1C1CCNCC1 [LDK378]
ΔTm at 10 µM [1]: 8 °C

Cc1cc(Nc2cc(CN3CCOCC3)c3nc(C)c(Cc4ccc(Cl)cc4F)n3n2)n[nH]1 [LY2784544]
ΔTm at 10 µM [1]: 4.3 °C

CCN1CCN(Cc2ccc(Nc3ncc(F)c(-c4cc(F)c5nc(C)n(C(C)C)c5c4)n3)nc2)CC1 [LY2835219]
ΔTm at 10 µM [1]: 6.2 °C

CNC(=O)c1nn(C)c2c1C(C)(C)Cc1cnc(Nc3ccc(N4CCN(C)CC4)cc3)nc1-2 [Milciclib (PHA-848125), Milciclib]
ΔTm at 10 µM [1]: 7 °C

CC(C)n1cnc2c(Nc3cccc(Cl)c3)nc(NCCO)nc21 [NG 52 (Compound 52)]
ΔTm [2]: 6.8 °C

CN(c1ncccc1CNc1nc(Nc2ccc3c(c2)CC(=O)N3)ncc1C(F)(F)F)S(C)(=O)=O [PF-562271]
ΔTm [1]: 4.2 °C

CS(=O)(=O)c1cccc(CNc2nc(Nc3ccc4c(c3)CCC(=O)N4)ncc2C(F)(F)F)c1 [PF-573228]
ΔTm [1]: 4.5 °C

Cc1nc(Nc2[nH]nc3c2CN(C(=O)N[C@H](CN(C)C)c2ccccc2)C3(C)C)c2sccc2n1 [PF-3758309]
ΔTm at 10 µM [1]: 4.4 °C

Cc1[nH]c(/C=C2\C(=O)Nc3ccc(S(=O)(=O)Cc4c(Cl)cccc4Cl)cc32)c(C)c1C(=O)N1CCC[C@@H]1CN1CCCC1 [PHA-665752]
ΔTm at 10 µM [1]: 4.9 °C

Cc1ccc([N+](=O)[O-])cc1S(=O)(=O)N(C)/N=C/c1cnc2ccc(Br)cn12 [PIK-75]
ΔTm [1]: 7.2 °C

C1=C/COCc2cc(ccc2OCCN2CCCC2)Nc2nccc(n2)-c2cccc(c2)COC/1 [Pacritinib (SB1518), Pacritinib]
ΔTm at 10 µM [1]: 7.8 °C

CCOc1cc2ncc(C#N)c(Nc3ccc(F)c(Cl)c3)c2cc1NC(=O)/C=C/CN(C)C [Pelitinib]
ΔTm at 10 µM [1]: 4.8 °C

c1nc2nc(Nc3ccc(N4CCOCC4)cc3)nc(NC3CCCCC3)c2[nH]1 [Reversine]
ΔTm at 12 µM [2]: 4.6 °C

COc1cc(C(=O)NC2CCN(C)CC2)ccc1Nc1ncc2c(n1)N(C1CCCC1)CC(F)(F)C(=O)N2C [Ro3280]
ΔTm [1]: 4.5 °C

COc1ccc2c(c1)/C(=C/c1cnc[nH]1)C(=O)N2 [SU9516]
ΔTm at 12 µM [2]: 5 °C

Cn1cc(/C=C2\C(=O)Nc3ccc(S(N)(=O)=O)cc32)c2ccccc21 [Syk Inhibitor]
ΔTm [2]: 9.4 °C

CNC(=O)c1ccccc1Nc1nc(Nc2ccc(N3CCOCC3)cc2OC)ncc1Cl [TAE226]
ΔTm [1]: 7.5^d °C | IC50 [4]: 395 nM

COc1cc(N2CCC(N3CCN(C)CC3)CC2)ccc1Nc1ncc(Cl)c(Nc2ccccc2S(=O)(=O)C(C)C)n1 [TAE684]
ΔTm at 12 µM [2]: 16.3 °C

CCS(=O)(=O)c1cccc(-c2cc(C(=O)NC3CCN(C)CC3)c(C)c3[nH]c4ncc(C)cc4c23)c1 [TAK-901]
ΔTm at 10 µM [1]: 4.7 °C

C=CC(=O)Nc1cccc(Sc2nc(Nc3ccc(N4CCN(C)CC4)cc3)ncc2Cl)c1 [WZ8040]
ΔTm [1]: 4.8 °C

JAK Inhibitor I
ΔTm [2]: 4.7 °C
